Counter-ions that a name gives are not always drawn. Like-named read-outs stand apart in the source and are kept apart here. Each block holds one molecule with its values, some of them ahead of it.
How the values were obtained:
[1] = test system: human gastric cancer H-23 (moderately differentiated-type adenocarcinoma); assay: Anti-tumor effect using nude mice-transplanted human tumor (Example 2); assay type: in vivo, BALB/cAJcl-nu nude mouse; details: 60 mg/kg i.v. q4d×4, final day d35
[2] = test system: human gastric cancer H-23 (moderately differentiated-type adenocarcinoma); assay: Anti-tumor effect using nude mice-transplanted human tumor (Example 3); details: 60 mg/kg i.v. d7, d11, d14
[3] = Influence of the drug on the host: change in weight and symptoms (Example 3); assay type: in vivo, BALB/cAJcl-nu nude mouse; details: 60 mg/kg i.v. d7, d11, d14
Method: The experiment was ended after 4 weeks from the starting day of administration. The tumor cell diameter was measured twice a week, and the weight was measured at the time of administration, so as to monitor the state of tumor cell proliferation and effect of drug administration, as well as any other physical changes. The mice were kept in a small vinyl isolator throughout the experiment, except for when they were moved to a clean bench through a sleeve to perform tumor cell transplantation, administration or weight measurement.
The influence of the drug on the host was evaluated by considering the change in weight and the expression of symptoms.

MCF-7 tumor cells = assay: Cytotoxicity test, viable cell count with Cell Counting Kit-8 (WST-8); assay type: cell-based; details: read-out: 50% inhibiting activity
Method: Ellipticine which had been size-reduced by laser beam irradiation (concentration: 2 μg/ml) was diluted with the below-mentioned culturing solution, and test samples having concentrations of 1 μg/ml, 0.5 μg/ml, 0.25 μg/ml and 0.125 μg/ml were prepared. MCF-7 (MEM-culture medium) and L-1210 (RPMI-1640 culture medium) tumor cells were used as target cells. The cytotoxicity was evaluated by counting the number of viable cells following 24 hours of culturing, using Cell Counting Kit-8. More specifically, WST-8 (U.S. Pat. No. 2,757,348) as an indicate for dehydrogenase activities was used, and the color at 450 nm was evaluated. Viability(%)=(Asamples−Ablank)/(Ano-samples−Ablank) 100%
(§1) The cytotoxicity of the SN-38 nano particles was evaluated by counting the number of viable cells following 24 hours of culturing in the same manner as in the cytotoxicity test of ellipticine as described in item (3-4) of Example 1. The 50% inhibiting activity for MCF-7 cells was 100 nM.
as §1, with “10-hydroxy-camptothecin” for “SN-38”, “72” for “24”

body state [3]: not good
maximum weight loss (max. wt. loss) [3]: 0.4%
SMILES: CCc1c2c(nc3ccc(OC(=O)N4CCC(N5CCCCC5)CC4)cc13)-c1cc3c(c(=O)n1C2)COC(=O)[C@]3(O)CC [CPT-11, irinotecan hydrochloride]
drug effect evaluation [1]: non-effective (IR of below 58%)
evaluation of max. IR ([2]; d18): effective (IR≧58%)
max. IR ([2]; d18): 69.0%
drug effect evaluation ([2]; d21): non-effective (IR of below 58%)
drug effect evaluation ([2]; final day d35): non-effective (IR of below 58%)

SMILES: CC[C@@]1(O)C(=O)OCc2c1cc1n(c2=O)Cc2cc3cc(O)ccc3nc2-1 [DMSO solution of 10-hydroxy-camptothecin, 10-hydroxy-camptothecin]
IC50 (MCF-7 tumor cells; MCF-7, 72 hours of culturing): 0.1 µM

SMILES: CCc1c2c(nc3ccc(O)cc13)-c1cc3c(c(=O)n1C2)COC(=O)[C@]3(O)CC [DMSO solution of SN-38, 7-ethyl-10-hydroxycamptothecin]
IC50 (MCF-7 tumor cells; MCF-7, 24 hours of culturing): 0.5 µM

— patent publication US8399024B2, “Water-insoluble medicine” (Ebara Corporation, priority 2006, dated 2013)
